From PubChem BioAssay (NCI)
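A five-concentration, 48-hour dose response in 96-well plates underlies each endpoint, interpolated linearly between surrounding concentrations. GI50: concentration for 50% inhibition of growth. At the TGI there is no net growth.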

How the values were obtained:
Experiment in all cases: growth of human tumour cells (NCI), 48 h
SK-MEL-28 melanoma = tested on: SK-MEL-28 melanoma
HCT-15 colon = tested on: HCT-15 colon
OVCAR-4 ovarian = tested on: OVCAR-4 ovarian
786-0 renal = tested on: 786-0 renal
SN12C renal = tested on: SN12C renal
EKVX NSCLC = tested on: EKVX NSCLC
UO-31 renal = tested on: UO-31 renal
SNB-75 CNS = tested on: SNB-75 CNS
UACC-62 melanoma = tested on: UACC-62 melanoma
LOX IMVI melanoma = tested on: LOX IMVI melanoma

Row | SMILES | TGI (SK-MEL-28 melanoma) | TGI (HCT-15 colon) | TGI (OVCAR-4 ovarian) | TGI (786-0 renal) | TGI (SN12C renal) | TGI (EKVX NSCLC) | TGI (UO-31 renal) | TGI (SNB-75 CNS) | TGI (UACC-62 melanoma) | TGI (LOX IMVI melanoma) | GI50 (HCT-15 colon) | GI50 (OVCAR-4 ovarian) | GI50 (786-0 renal) | GI50 (SN12C renal) | GI50 (LOX IMVI melanoma) | GI50 (EKVX NSCLC) | GI50 (UO-31 renal) | GI50 (SNB-75 CNS) | GI50 (SK-MEL-28 melanoma) | GI50 (UACC-62 melanoma)
1 | c1ccc(CSc2nc3ccccc3nc2-c2cccs2)cc1 | > 100 µM | > 100 µM | > 100 µM | > 100 µM | > 100 µM | > 100 µM | > 100 µM | > 100 µM | – | – | – | – | – | – | – | – | – | – | – | –
2 | CCOc1ccccc1NC(=O)C(=O)Cc1nc2ccccc2s1 | > 100 µM | > 100 µM | > 100 µM | > 100 µM | > 100 µM | > 100 µM | > 100 µM | > 100 µM | > 100 µM | – | – | – | – | – | – | – | – | – | – | –
3 | Cc1nn(C(=O)c2ccc(Cl)cc2)c2c1C(c1ccc(O)cc1)SC(N)=N2 (stereo not drawn) | > 10 µM | > 10 µM | > 10 µM | > 10 µM | > 10 µM | > 10 µM | – | > 10 µM | > 10 µM | > 10 µM | – | – | – | – | – | – | – | – | – | –
4 | C=C1CC[C@@H](C(C)C)C[C@@H]2[C@H]([C@H](O)C[C@]2(C)O)[C@@]2(C)CC[C@@H]1O2 | – | 27.7 µM | 28 µM | 33.4 µM | 23.3 µM | 55.9 µM | 31.1 µM | 38.9 µM | – | 27.9 µM | 14.6 µM | 14.8 µM | 18.8 µM | 11.2 µM | 14.7 µM | 28 µM | 17.3 µM | 17 µM | – | –
5 | O=C(O)CSc1n[nH]c(Cc2ccccc2)n1 | > 100 µM | > 100 µM | > 100 µM | > 100 µM | > 100 µM | > 100 µM | > 100 µM | – | > 100 µM | > 100 µM | – | – | – | – | – | – | – | – | – | –
6 | C[C@]12CC[C@@H]3c4ccc(O)c([N+](=O)[O-])c4CC[C@H]3[C@@H]1CC[C@@H]2NS(=O)(=O)c1cccc(Br)c1 | 3.67 µM | 3.09 µM | 2.94 µM | 7.5 µM | 3.54 µM | – | 5.63 µM | 2.7 µM | 3.69 µM | – | 1.59 µM | 1.47 µM | 2.7 µM | 1.72 µM | – | – | 2.19 µM | 1.19 µM | 1.85 µM | 1.6 µM
7 | C[C@H]1CCC/C=C/[C@@H]2C[C@H](O)C[C@H]2[C@H](O)[C@@H](SCC(O)CO)CC(=O)O1 (stereo partly drawn) | > 100 µM | 46.2 µM | > 100 µM | 15 µM | > 100 µM | > 100 µM | 71 µM | > 100 µM | 82.2 µM | – | 18.9 µM | 4.17 µM | 2.75 µM | 34.3 µM | – | 27.7 µM | 21.4 µM | 6.77 µM | 13.3 µM | 16.3 µM
8 | O=C(CCCN1CCC2(CC1)C(=NC1CCCCC1)NC(=O)N2c1ccccc1)c1ccc(F)cc1 | 34.2 µM | > 100 µM | > 100 µM | 45 µM | 40.7 µM | > 100 µM | – | 56 µM | 46.5 µM | 30 µM | – | – | – | – | – | – | – | – | – | –
9 | CN(C)CCSc1nccc(-c2cc3ccccc3s2)n1 | 40.9 µM | 37.6 µM | 82.2 µM | 63.4 µM | > 100 µM | – | 47.6 µM | > 100 µM | 40.4 µM | 32.2 µM | – | – | – | – | – | – | – | – | – | –
